Where “and” joins values, the source holds several entries; their conditions need not be identical. Identical values can stand only once.
Assays:
caspase-3/7 = test: Staurosporine-induced caspase-3/7 activity in NHDF, measured in cell lysates with fluorogenic substrate Ac-DEVD-AMC; assay type: cell-based, human; settings: for Caspase-3/7 activity (Fluorescence 380 nm/440 nm) / Caspase-3/7 activity - Background (Fluorescence 380 nm/440 nm) / Caspese-3/7 activity/proteins: single replicates
Method: The potential inhibitory effect of compounds 15(S)-HEPE EE and EPA EE was evaluated on staurosporine-induced caspase activation in normal human dermal fibroblasts (NHDF). […] Normal human dermal fibroblasts (NHDF) were used at the 8th passage. […] Fibroblasts were seeded in 24-well plates and cultured for 24 hours in culture medium. The medium was then removed and replaced by assay medium containing or not (control) the test compounds and cells were pre-incubated for 24 hours. […] The cells were then incubated for 24 hours. Non-stimulated controls (without inducer) were performed in parallel. All experimental conditions were performed in n=3. […] Enzyme activity assay and protein quantification assay were performed in separated plates due to the fact that DTT used in the lysis buffer for caspase activity interferes with protein quantification. […] Lysis buffer: HEPES buffer (pH 7.4) containing EDTA, Triton X-100, NP-40 and DTT Assay Buffer: HEPES buffer (pH 7.4) containing NaCl, EDTA, NP-40, glycerol and DTT Substrate: Ac-DEVD-AMC, tested at 10 μM (stock solution at 1.5 mM in DMSO) Reference inhibitor: […] Ac-DEVD-AMC is a synthetic tetrapeptide fluorogenic substrate for caspase-3 and caspase-7 and contains the amino acid sequence of the PARP cleavage site at […]. […] Enzymes cleave the tetrapeptide between D and AMC resulting in the release of fluorogenic AMC, which can be quantified with a spectrofluorometer. […] In parallel, an additional control (assay buffer containing the substrate) was also performed to determine the background signal. At the end of incubation, the fluorescence intensity emitted by the reaction product (cleaved Ac-DEVD-AMC) was measured at wavelengths λex 380 nm and λem 440 nm using a spectrofluorimeter (SPECTRAmax® Gemini, Molecular Devices).

[1] = tested on: normal human dermal fibroblasts (NHDF); test: MTT reduction assay and observation of the cell layers: viability of fibroblasts after 48 hours of incubation; assay type: cell-based; settings: for Visability (%): single replicates; for Morpholigical observations: key: +: normal population; +/−: growth reduction; −: toxicity; 0: cell mortality; grains of compound; opacity of the compound; *: morphological modification; agglutinated cells
Method: Normal human dermal fibroblasts (NHDF) were used at the 8th passage. Cells were cultured at 37° C., 5% CO2 in DMEM supplemented with L-glutamine 2 mM, 50 U/ml Penicillin, 50 μg/ml Streptomycin and 10% Foetal calf serum (FCS).

[2] = 0.001 μg/ml, staurosporine-stimulated NHDF
[3] = 0.001 μg/ml, staurosporine-stimulated NHDF, listed as 16(8)-HE PE EE
[4] = 0.01 μg/ml, staurosporine-stimulated NHDF
[5] = 0.01 μg/ml, staurosporine-stimulated NHDF, listed as 16(8)-HE PE EE
[6] = 0.1 μg/ml, staurosporine-stimulated NHDF
[7] = 0.1 μg/ml, staurosporine-stimulated NHDF, listed as 16(8)-HE PE EE
[8] = 1 μg/ml, staurosporine-stimulated NHDF
[9] = 1 μg/ml, staurosporine-stimulated NHDF, listed as 16(8)-HE PE EE
[10] = 10 μg/ml, staurosporine-stimulated NHDF
[11] = 10 μg/ml, staurosporine-stimulated NHDF, listed as 16(8)-HE PE EE
[12] = 100 μg/ml, staurosporine-stimulated NHDF
[13] = 100 μg/ml, staurosporine-stimulated NHDF, listed as 16(8)-HE PE EE
[14] = tested from 0.001 to 10 μg/ml, staurosporine-stimulated NHDF
[15] = 0.1 μm, inhibitor added in the reaction mix of stimulated control lysate
[16] = 0.1 μm, inhibitor added in the reaction mix of stimulated control lysate, listed as Ao-DEVO-CHO

## CC/C=C\C[C@H](O)/C=C/C=C\C/C=C\C/C=C\CCCC(=O)OCC [15(S)-HEPE EE]
caspase-3/7; [2]
  % inhibition: −37%
  % stimulated control: 134%
  Normalized data: Mean (caspase-3/7 activity/proteins): 114767 AU/mg
caspase-3/7; [3]
  Caspase-3/7 activity (Fluorescence 380 nm/440 nm): 1809 AU and 1753 AU and 1686 AU
  Caspase-3/7 activity - Background (Fluorescence 380 nm/440 nm): 1479 AU and 1423 AU and 1396 AU
  Caspese-3/7 activity/proteins: 109076 AU/mg and 129611 AU/mg and 105615 AU/mg
caspase-3/7; [4]
  % inhibition: −6%
  % stimulated control: 106%
  Normalized data: Mean (caspase-3/7 activity/proteins): 90306 AU/mg
caspase-3/7; [5]
  Caspase-3/7 activity (Fluorescence 380 nm/440 nm): 1495 AU and 1587 AU and 1789 AU
  Caspase-3/7 activity - Background (Fluorescence 380 nm/440 nm): 1166 AU and 1258 AU and 1459 AU
  Caspese-3/7 activity/proteins: 81085 AU/mg and 89757 AU/mg and 100075 AU/mg
caspase-3/7; [6]
  % inhibition: 4%
  % stimulated control: 98%
  Normalized data: Mean (caspase-3/7 activity/proteins): 82485 AU/mg
caspase-3/7; [7]
  Caspase-3/7 activity (Fluorescence 380 nm/440 nm): 1468 AU and 1697 AU and 1154 AU
  Caspase-3/7 activity - Background (Fluorescence 380 nm/440 nm): 1139 AU and 1367 AU and 825 AU
  Caspese-3/7 activity/proteins: 81102 AU/mg and 109799 AU/mg and 56654 AU/mg
caspase-3/7; [8]
  % inhibition: −9%
  % stimulated control: 108%
  Normalized data: Mean (caspase-3/7 activity/proteins): 93200 AU/mg
caspase-3/7; [9]
  Caspase-3/7 activity (Fluorescence 380 nm/440 nm): 1536 AU and 1600 AU and 1735 AU
  Caspase-3/7 activity - Background (Fluorescence 380 nm/440 nm): 1206 AU and 1270 AU and 1406 AU
  Caspese-3/7 activity/proteins: 86474 AU/mg and 94481 AU/mg and 93645 AU/mg
caspase-3/7; [10]
  % inhibition: 8%
  % stimulated control: 93%
  Normalized data: Mean (caspase-3/7 activity/proteins): 80078 AU/mg
caspase-3/7; [11]
  Caspase-3/7 activity (Fluorescence 380 nm/440 nm): 1439 AU and 1551 AU and 1514 AU
  Caspase-3/7 activity - Background (Fluorescence 380 nm/440 nm): 1109 AU and 1221 AU and 1184 AU
  Caspese-3/7 activity/proteins: 76241 AU/mg and 81395 AU/mg and 82597 AU/mg
caspase-3/7; [12]
  % inhibition: 83%
  % stimulated control: 26%
  Normalized data: Mean (caspase-3/7 activity/proteins): 21632 AU/mg
  effect on caspase-3/7 activity (in words): clear inhibitory effect
caspase-3/7; [13]
  Caspase-3/7 activity (Fluorescence 380 nm/440 nm): 663 AU and 729 AU and 660 AU
  Caspase-3/7 activity - Background (Fluorescence 380 nm/440 nm): 324 AU and 400 AU and 320 AU
  Caspese-3/7 activity/proteins: 15788 AU/mg and 15464 AU/mg and 19643 AU/mg
caspase-3/7; [14]
  effect on caspase-3/7 activity (in words): no effect
[1]; 0.001 μg/ml
  Visability (%) Mean: 98%
  Visability (%): 99% and 97% and 98%
[1]; 0.01 μg/ml
  Visability (%) Mean: 96%
  Visability (%): 90% and 100% and 98%
[1]; 0.1 μg/ml
  Visability (%) Mean: 97%
  Visability (%): 99% and 96% and 98%
[1]; 1 μg/ml
  Visability (%) Mean: 97%
  Visability (%): 96% (2×) and 97%
[1]; 10 μg/ml
  Visability (%) Mean: 101%
  Visability (%): 100% and 102% and 101%
[1]; 30 μg/ml
  Visability (%) Mean: 99%
  Visability (%): 103% and 98% and 96%
[1]; 100 μg/ml
  Visability (%) Mean: 104%
  Visability (%): 103% and 105% and 104%
[1]; 300 μg/ml
  Visability (%) Mean: 100%
  Visability (%): 98% and 105% and 97%

## CC/C=C\C/C=C\C/C=C\C/C=C\C/C=C\CCCC(=O)OCC [EPA EE]
caspase-3/7; [2]
  % inhibition: −31%
  % stimulated control: 128%
  Normalized data: Mean (caspase-3/7 activity/proteins): 113173 AU/mg
  Caspase-3/7 activity (Fluorescence 380 nm/440 nm): 1457 AU and 1667 AU and 1637 AU
  Caspase-3/7 activity - Background (Fluorescence 380 nm/440 nm): 1140 AU and 1350 AU and 1320 AU
  Caspese-3/7 activity/proteins: 100237 AU/mg and 128199 AU/mg and 111084 AU/mg
caspase-3/7; [4]
  % inhibition: −1%
  % stimulated control: 101%
  Normalized data: Mean (caspase-3/7 activity/proteins): 89425 AU/mg
  Caspase-3/7 activity (Fluorescence 380 nm/440 nm): 1359 AU and 1476 AU and 1472 AU
  Caspase-3/7 activity - Background (Fluorescence 380 nm/440 nm): 1042 AU and 1159 AU and 1155 AU
  Caspese-3/7 activity/proteins: 89522 AU/mg and 89043 AU/mg and 89708 AU/mg
caspase-3/7; [6]
  % inhibition: 5%
  % stimulated control: 95%
  Normalized data: Mean (caspase-3/7 activity/proteins): 84209 AU/mg
  Caspase-3/7 activity (Fluorescence 380 nm/440 nm): 1474 AU and 1382 AU and 1558 AU
  Caspase-3/7 activity - Background (Fluorescence 380 nm/440 nm): 1157 AU and 1065 AU and 1241 AU
  Caspese-3/7 activity/proteins: 83312 AU/mg and 79809 AU/mg and 89506 AU/mg
caspase-3/7; [8]
  % inhibition: −3%
  % stimulated control: 103%
  Normalized data: Mean (caspase-3/7 activity/proteins): 90527 AU/mg
  Caspase-3/7 activity (Fluorescence 380 nm/440 nm): 1423 AU and 1604 AU and 1486 AU
  Caspase-3/7 activity - Background (Fluorescence 380 nm/440 nm): 1106 AU and 1287 AU and 1169 AU
  Caspese-3/7 activity/proteins: 87358 AU/mg and 96851 AU/mg and 87370 AU/mg
caspase-3/7; [10]
  % inhibition: 2%
  % stimulated control: 98%
  Normalized data: Mean (caspase-3/7 activity/proteins): 86723 AU/mg
  Caspase-3/7 activity (Fluorescence 380 nm/440 nm): 1335 AU and 1264 AU and 1458 AU
  Caspase-3/7 activity - Background (Fluorescence 380 nm/440 nm): 1018 AU and 947 AU and 1141 AU
  Caspese-3/7 activity/proteins: 78044 AU/mg and 76787 AU/mg and 105337 AU/mg
caspase-3/7; [12]
  % inhibition: 61%
  % stimulated control: 45%
  Normalized data: Mean (caspase-3/7 activity/proteins): 39319 AU/mg
  effect on caspase-3/7 activity (in words): clear inhibitory effect
  Caspase-3/7 activity (Fluorescence 380 nm/440 nm): 807 AU and 843 AU and 1068 AU
  Caspase-3/7 activity - Background (Fluorescence 380 nm/440 nm): 490 AU and 526 AU and 751 AU
  Caspese-3/7 activity/proteins: 29572 AU/mg and 37623 AU/mg and 50763 AU/mg
caspase-3/7; [14]
  effect on caspase-3/7 activity (in words): no effect
[1]; 0.001 μg/ml
  Morpholigical observations: +
  Visability (%) Mean: 100%
  Visability (%): 99% and 97% and 104%
[1]; 0.01 μg/ml
  Morpholigical observations: +
  Visability (%) Mean: 98%
  Visability (%): 101% and 94% and 98%
[1]; 0.1 μg/ml
  Morpholigical observations: +
  Visability (%) Mean: 99%
  Visability (%): 99% (2×) and 98%
[1]; 1 μg/ml
  Morpholigical observations: +
  Visability (%) Mean: 97%
  Visability (%): 95% (2×) and 100%
[1]; 10 μg/ml
  Morpholigical observations: +
  Visability (%) Mean: 97%
  Visability (%): 94% and 98% and 100%
[1]; 30 μg/ml
  Morpholigical observations: +
  Visability (%) Mean: 96%
  Visability (%): 99% and 95% and 93%
[1]; 100 μg/ml
  Morpholigical observations: +
  Visability (%) Mean: 100%
  Visability (%): 102% and 98% and 100%
[1]; 300 μg/ml
  Morpholigical observations: +
  Visability (%) Mean: 106%
  Visability (%): 105% and 107% and 106%

## CN[C@@H]1C[C@H]2O[C@@](C)([C@@H]1OC)n1c3ccccc3c3c4c(c5c6ccccc6n2c5c31)C(=O)NC4 [staurosporine]
caspase-3/7; staurosporine 100 nM, NHDF
  increase of caspase-3/7 activity normalized versus protein quantity, staurosporine-stimulated versus non-stimulated conditions: 10 fold

## Ac-DEVD-CHO
caspase-3/7; 0.1 μM, added in the reaction mix
  inhibition of staurosporine-stimulated caspase-3/7 activity (in words): fully inhibited
caspase-3/7; [15]
  % inhibition: 109%
  % stimulated control: 1%
  Normalized data: Mean (caspase-3/7 activity/proteins): 954 AU/mg
caspase-3/7; [16]
  Caspase-3/7 activity (Fluorescence 380 nm/440 nm): 347 AU and 343 AU and 339 AU
  Caspase-3/7 activity - Background (Fluorescence 380 nm/440 nm): 17 AU and 13 AU and 10 AU
  Caspese-3/7 activity/proteins: 1254 AU/mg and 934 AU/mg and 674 AU/mg

— patent publication US10716773B2, “Compositions comprising 15-HEPE and methods of treating or preventing cancer and neurologic disease” (Afimmune Limited, priority 2015, dated 2020)
